Test results: ChEMBL document CHEMBL1201862, “PubChem BioAssay data set” (2004)
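Dose response: 5 concentrations. Exposure: 48 h. Format: 96-well plates. Endpoint: linear interpolation; highest concentration if not reached. Here, GI50 denotes the concentration required for 50% inhibition of growth.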 Calls of active or inactive are those of the source. Cut-off read from the data, not from the text of the source: active = GI50 up to about 1.1 µM and inactive = higher.

Experiments:
Test in all cases: inhibition of tumour cell growth, NCI panel, 48 h
[1] = tested on: LOX IMVI
[2] = tested on: OVCAR-3
[3] = tested on: SK-MEL-5
[4] = tested on: MDA-MB-231
[5] = tested on: K562
[6] = tested on: HOP-62
[7] = tested on: SF-268
[8] = tested on: A549
[9] = tested on: NCI/ADR-RES
[10] = tested on: NCI-H460
[11] = tested on: OVCAR-4
[12] = tested on: U-251
[13] = tested on: HT-29
[14] = tested on: SNB-75
[15] = tested on: CAKI-1
[16] = tested on: DU-145
[17] = tested on: SK-MEL-28
[18] = tested on: UO-31
[19] = tested on: SW-620
[20] = tested on: UACC-62

SMILES	GI50 [1]	GI50 [2]	GI50 [3]	GI50 [4]	GI50 [5]	GI50 [6]	GI50 [7]	GI50 [8]	GI50 [9]	GI50 [10]	GI50 [11]	GI50 [12]	GI50 [13]	GI50 [14]	GI50 [15]	GI50 [16]	GI50 [17]	GI50 [18]	GI50 [19]	GI50 [20]
COc1cc(/C=C2\N=C(c3ccccc3)N(C3Nc4cc5c(cc4S3)NC(N3C(=O)/C(=C/c4cc(OC)c(OC)c(OC)c4)N=C3c3ccccc3)S5)C2=O)cc(OC)c1OC (stereo unspecified)	74.1 µM (inactive)	61 µM (inactive)	64.9 µM (inactive)	> 100 µM (inactive)	71.9 µM (inactive)	> 100 µM (inactive)	> 100 µM (inactive)	23.6 µM (inactive)	38.5 µM (inactive)	13.7 µM (inactive)	70.5 µM (inactive)	45.2 µM (inactive)	74.6 µM (inactive)	> 100 µM (inactive)	39.9 µM (inactive)	94.8 µM (inactive)	> 100 µM (inactive)	54.1 µM (inactive)	> 100 µM (inactive)	
COP(=O)(OC)C(N)Cc1c[nH]c2ccccc12 (stereo unspecified)	> 100 µM (inactive)	> 100 µM (inactive)	> 100 µM (inactive)	> 100 µM (inactive)	> 100 µM (inactive)	> 100 µM (inactive)		> 100 µM (inactive)	> 100 µM (inactive)	> 100 µM (inactive)	> 100 µM (inactive)	> 100 µM (inactive)	> 100 µM (inactive)	> 100 µM (inactive)	> 100 µM (inactive)	> 100 µM (inactive)	> 100 µM (inactive)	> 100 µM (inactive)	> 100 µM (inactive)	
O=C1CSC(/C=C/c2ccccc2)N1c1nc2cc3sc(N4C(=O)CSC4/C=C/c4ccccc4)nc3cc2s1 (stereo unspecified)	> 41.3 µM (inactive)	38.8 µM (inactive)	> 46.5 µM (inactive)	62.2 µM (inactive)	42.4 µM (inactive)	> 74 µM (inactive)	> 100 µM (inactive)	9.82 µM (inactive)	> 87.1 µM (inactive)	3.33 µM (inactive)	65.3 µM (inactive)	44.6 µM (inactive)	18 µM (inactive)	73.8 µM (inactive)	53 µM (inactive)	> 48.9 µM (inactive)	> 58.7 µM (inactive)	> 51.5 µM (inactive)	9.46 µM (inactive)	> 100 µM (inactive)
COc1cc2cc(C(=O)N3CC(CCl)c4ccc(NO)cc43)[nH]c2c(OC)c1OC (stereo unspecified)	0.164 µM (active)	0.257 µM (active)	0.0984 µM (active)	0.254 µM (active)	0.139 µM (active)	0.0925 µM (active)	0.101 µM (active)	0.0897 µM (active)	0.0723 µM (active)	0.0446 µM (active)	0.177 µM (active)	0.0927 µM (active)	0.0646 µM (active)	0.177 µM (active)	0.227 µM (active)	0.0953 µM (active)	0.245 µM (active)	0.0325 µM (active)	0.166 µM (active)	0.0991 µM (active)
Nc1ccccc1C(=O)N/N=C1\C(=O)Nc2ccccc21		> 100 µM (inactive)	> 100 µM (inactive)	19.6 µM (inactive)	> 100 µM (inactive)	43.6 µM (inactive)	88.7 µM (inactive)	> 100 µM (inactive)	> 100 µM (inactive)	> 100 µM (inactive)	> 100 µM (inactive)	40.2 µM (inactive)	> 100 µM (inactive)	23.9 µM (inactive)	> 100 µM (inactive)	> 100 µM (inactive)		> 100 µM (inactive)		> 100 µM (inactive)
Cc1n[nH]c(CC#N)n1	> 100 µM (inactive)	> 100 µM (inactive)	> 100 µM (inactive)	> 100 µM (inactive)	> 100 µM (inactive)	> 100 µM (inactive)	> 100 µM (inactive)	> 100 µM (inactive)	> 100 µM (inactive)		> 100 µM (inactive)	> 100 µM (inactive)	> 100 µM (inactive)	> 100 µM (inactive)		> 100 µM (inactive)		> 100 µM (inactive)	> 100 µM (inactive)	> 100 µM (inactive)
Cc1ccc(OCC2OC(n3cnc4c(Cl)nc(N)nc43)CC2Oc2ccc(C)cc2)cc1 (stereo unspecified)	47.9 µM (inactive)	21.6 µM (inactive)	30.9 µM (inactive)	22.4 µM (inactive)	29.4 µM (inactive)	> 36.1 µM (inactive)	41.6 µM (inactive)	6.73 µM (inactive)	34.4 µM (inactive)	40.6 µM (inactive)	21.4 µM (inactive)	> 55.6 µM (inactive)	46.1 µM (inactive)	> 70.8 µM (inactive)	1.76 µM (inactive)	40.8 µM (inactive)	> 51.4 µM (inactive)	4.58 µM (inactive)	> 55.3 µM (inactive)	> 63.5 µM (inactive)
CCC(=O)NC(Nc1cccc(F)c1)(C(F)(F)F)C(F)(F)F	> 100 µM (inactive)	> 100 µM (inactive)	78.7 µM (inactive)	> 100 µM (inactive)	> 100 µM (inactive)		> 100 µM (inactive)	> 100 µM (inactive)	> 100 µM (inactive)	> 100 µM (inactive)	> 100 µM (inactive)	90.6 µM (inactive)	> 100 µM (inactive)	> 100 µM (inactive)	10.7 µM (inactive)	> 100 µM (inactive)	> 100 µM (inactive)	70.1 µM (inactive)	> 100 µM (inactive)	> 100 µM (inactive)
COC(=O)C(F)C(Br)C(=O)OC (stereo unspecified)	6.41 µM (inactive)	2.11 µM (inactive)	18.5 µM (inactive)	14.6 µM (inactive)	1.63 µM (inactive)	16.3 µM (inactive)	7.71 µM (inactive)	19.7 µM (inactive)	2.94 µM (inactive)	18.9 µM (inactive)	3.39 µM (inactive)	3.05 µM (inactive)	2.57 µM (inactive)	12.3 µM (inactive)	2.35 µM (inactive)	9.55 µM (inactive)	18 µM (inactive)	1.89 µM (inactive)	1.95 µM (inactive)	15.9 µM (inactive)
O=C1Nc2ccc(Cl)cc2/C1=C\c1c(Cl)nc2sccn12	7.48 µM (inactive)	3.32 µM (inactive)		2.56 µM (inactive)	0.156 µM (active)	13.9 µM (inactive)	> 100 µM (inactive)		3.1 µM (inactive)	1.96 µM (inactive)	> 100 µM (inactive)	2.93 µM (inactive)		> 100 µM (inactive)	18.7 µM (inactive)	73.5 µM (inactive)	> 100 µM (inactive)	> 100 µM (inactive)	14.8 µM (inactive)	
